According to PubChem BioAssay (NCI):
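Tested at 5 concentrations; 48 h exposure; 96-well plates; endpoints linearly interpolated, else capped at highest concentration. TGI: concentration producing complete growth inhibition.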

How the values were obtained:
Assay in all cases: NCI tumour cell line growth inhibition, 48 h
KM12 colon = system: KM12 colon
HCT-15 colon = system: HCT-15 colon
PC-3 prostate = system: PC-3 prostate
NCI-H522 lung = system: NCI-H522 lung
MDA-MB-435 = system: MDA-MB-435
U251 CNS = system: U251 CNS
HOP-92 NSCLC = system: HOP-92 NSCLC
A498 renal = system: A498 renal
SF-295 CNS = system: SF-295 CNS
M14 melanoma = system: M14 melanoma
EKVX NSCLC = system: EKVX NSCLC
SNB-19 CNS = system: SNB-19 CNS
SW-620 colon = system: SW-620 colon
ACHN renal = system: ACHN renal
TK-10 renal = system: TK-10 renal
BT-549 breast = system: BT-549 breast
NCI-H460 lung = system: NCI-H460 lung
SK-MEL-28 melanoma = system: SK-MEL-28 melanoma
UACC-62 melanoma = system: UACC-62 melanoma
HOP-62 NSCLC = system: HOP-62 NSCLC
MCF7 breast = system: MCF7 breast
RPMI-8226 leukemia = system: RPMI-8226 leukemia
T-47D breast = system: T-47D breast
NCI-H23 lung = system: NCI-H23 lung
OVCAR-5 ovarian = system: OVCAR-5 ovarian
SR leukemia = system: SR leukemia
SF-268 CNS = system: SF-268 CNS
COLO 205 colon = system: COLO 205 colon
SK-MEL-2 melanoma = system: SK-MEL-2 melanoma
MALME-3M melanoma = system: MALME-3M melanoma
OVCAR-8 ovarian = system: OVCAR-8 ovarian
MDA-N = system: MDA-N
A549 NSCLC = system: A549 NSCLC
SK-OV-3 ovarian = system: SK-OV-3 ovarian
LOX IMVI melanoma = system: LOX IMVI melanoma
HCT-116 colon = system: HCT-116 colon
CAKI-1 renal = system: CAKI-1 renal
OVCAR-4 ovarian = system: OVCAR-4 ovarian
RXF 393 renal = system: RXF 393 renal
DU-145 prostate = system: DU-145 prostate
UACC-257 melanoma = system: UACC-257 melanoma
HS 578T breast = system: HS 578T breast
SK-MEL-5 melanoma = system: SK-MEL-5 melanoma
IGROV1 ovarian = system: IGROV1 ovarian
SN12C renal = system: SN12C renal
CCRF-CEM leukemia = system: CCRF-CEM leukemia
MDA-MB-231 breast = system: MDA-MB-231 breast
HT29 colon = system: HT29 colon
MOLT-4 leukemia = system: MOLT-4 leukemia
786-0 renal = system: 786-0 renal
SF-539 CNS = system: SF-539 CNS
NCI/ADR-RES ovarian = system: NCI/ADR-RES ovarian
NCI-H226 lung = system: NCI-H226 lung
OVCAR-3 ovarian = system: OVCAR-3 ovarian
K-562 leukemia = system: K-562 leukemia
HL-60(TB) leukemia = system: HL-60(TB) leukemia
HCC-2998 colon = system: HCC-2998 colon
SNB-75 CNS = system: SNB-75 CNS
UO-31 renal = system: UO-31 renal

CC[C@@H](CCCC[C@@H]1CC[C@H]2CC(=O)C[C@@H]12)OC
TGI (KM12 colon): > 100 µM
TGI (HCT-15 colon): > 100 µM
TGI (PC-3 prostate): > 100 µM
TGI (NCI-H522 lung): > 100 µM
TGI (MDA-MB-435): > 100 µM
TGI (U251 CNS): > 100 µM
TGI (HOP-92 NSCLC): > 100 µM
TGI (A498 renal): > 100 µM
TGI (SF-295 CNS): > 100 µM
TGI (M14 melanoma): > 100 µM
TGI (EKVX NSCLC): > 100 µM
TGI (SNB-19 CNS): > 100 µM
TGI (SW-620 colon): > 100 µM
TGI (ACHN renal): > 100 µM
TGI (TK-10 renal): > 100 µM
TGI (BT-549 breast): > 100 µM
TGI (NCI-H460 lung): > 100 µM
TGI (SK-MEL-28 melanoma): > 100 µM
TGI (UACC-62 melanoma): > 100 µM
TGI (HOP-62 NSCLC): > 100 µM
TGI (MCF7 breast): > 100 µM
TGI (RPMI-8226 leukemia): > 100 µM
TGI (T-47D breast): > 100 µM
TGI (NCI-H23 lung): > 100 µM
TGI (OVCAR-5 ovarian): > 100 µM
TGI (SR leukemia): > 100 µM
TGI (SF-268 CNS): > 100 µM
TGI (COLO 205 colon): > 100 µM
TGI (SK-MEL-2 melanoma): > 100 µM
TGI (MALME-3M melanoma): > 100 µM
TGI (OVCAR-8 ovarian): > 100 µM
TGI (MDA-N): > 100 µM
TGI (A549 NSCLC): > 100 µM
TGI (SK-OV-3 ovarian): > 100 µM
TGI (LOX IMVI melanoma): > 100 µM
TGI (HCT-116 colon): > 100 µM
TGI (CAKI-1 renal): > 100 µM
TGI (OVCAR-4 ovarian): > 100 µM
TGI (RXF 393 renal): > 100 µM
TGI (DU-145 prostate): > 100 µM
TGI (UACC-257 melanoma): > 100 µM
TGI (HS 578T breast): > 100 µM
TGI (SK-MEL-5 melanoma): > 100 µM
TGI (IGROV1 ovarian): > 100 µM
TGI (SN12C renal): > 100 µM
TGI (CCRF-CEM leukemia): > 100 µM
TGI (MDA-MB-231 breast): > 100 µM
TGI (HT29 colon): > 100 µM
TGI (MOLT-4 leukemia): > 100 µM
TGI (786-0 renal): > 100 µM
TGI (SF-539 CNS): > 100 µM
TGI (NCI/ADR-RES ovarian): > 100 µM
TGI (NCI-H226 lung): > 100 µM
TGI (OVCAR-3 ovarian): > 100 µM
TGI (K-562 leukemia): > 100 µM
TGI (HL-60(TB) leukemia): > 100 µM
TGI (HCC-2998 colon): > 100 µM
TGI (SNB-75 CNS): > 100 µM

OC1c2ccccc2[C@@H]2[C@H]1[C@@H](c1ccccc1)C1(Cc3ccccc3C1O)[C@H]2c1ccccc1 (some centres not stated)
TGI (KM12 colon): 8.25 µM
TGI (HCT-15 colon): 15.1 µM
TGI (PC-3 prostate): 8.87 µM
TGI (UO-31 renal): 20.3 µM
TGI (NCI-H522 lung): 14.2 µM
TGI (MDA-MB-435): 7.73 µM
TGI (U251 CNS): 14.1 µM
TGI (HOP-92 NSCLC): 12.6 µM
TGI (A498 renal): 23.6 µM
TGI (SF-295 CNS): 18.9 µM
TGI (M14 melanoma): 17.1 µM
TGI (EKVX NSCLC): 19.2 µM
TGI (SNB-19 CNS): 26.5 µM
TGI (SW-620 colon): 17.4 µM
TGI (ACHN renal): 16.7 µM
TGI (TK-10 renal): 29.7 µM
TGI (BT-549 breast): 28.6 µM
TGI (NCI-H460 lung): 10.2 µM
TGI (SK-MEL-28 melanoma): 22.1 µM
TGI (UACC-62 melanoma): 20.6 µM
TGI (HOP-62 NSCLC): 22.9 µM
TGI (MCF7 breast): 4.7 µM
TGI (RPMI-8226 leukemia): 9.89 µM
TGI (T-47D breast): 22.5 µM
TGI (NCI-H23 lung): 18.4 µM
TGI (OVCAR-5 ovarian): 23.2 µM
TGI (SR leukemia): 4.49 µM
TGI (SF-268 CNS): 24.1 µM
TGI (COLO 205 colon): 3.62 µM
TGI (SK-MEL-2 melanoma): 20 µM
TGI (MALME-3M melanoma): 17.9 µM
TGI (OVCAR-8 ovarian): 15.3 µM
TGI (MDA-N): 13.7 µM
TGI (A549 NSCLC): 14.2 µM
TGI (SK-OV-3 ovarian): 23 µM
TGI (LOX IMVI melanoma): 7.04 µM
TGI (HCT-116 colon): 14.5 µM
TGI (CAKI-1 renal): 22.8 µM
TGI (OVCAR-4 ovarian): 17.4 µM
TGI (RXF 393 renal): 4.83 µM
TGI (DU-145 prostate): 22 µM
TGI (UACC-257 melanoma): 11.1 µM
TGI (HS 578T breast): 25.1 µM
TGI (SK-MEL-5 melanoma): 18.2 µM
TGI (IGROV1 ovarian): 16.6 µM
TGI (SN12C renal): 3.29 µM
TGI (CCRF-CEM leukemia): 12.7 µM
TGI (MDA-MB-231 breast): 20.3 µM
TGI (HT29 colon): 6.87 µM
TGI (MOLT-4 leukemia): 8.57 µM
TGI (786-0 renal): 8.28 µM
TGI (SF-539 CNS): 26.6 µM
TGI (NCI/ADR-RES ovarian): 16.6 µM
TGI (NCI-H226 lung): 19.4 µM
TGI (OVCAR-3 ovarian): 6.27 µM
TGI (K-562 leukemia): 10.7 µM
TGI (HL-60(TB) leukemia): 4.47 µM
TGI (HCC-2998 colon): 4.58 µM
TGI (SNB-75 CNS): 21.5 µM
